# Results from patent US10183950B2, “Thienopyrimidine inhibitors of atypical protein kinase C” (Cancer Research Technology Limited, priority 2011, dated 2019).
# Target: T1, full-length human PKCι (Homo sapiens, UniProt P41743)
# T1 construct: Recombinant, full-length human PKCι expressed in Sf21 insect cells is also commercially available; purchased; host or cells: Sf21 insect cells
# T1 sequence (P41743 1-596): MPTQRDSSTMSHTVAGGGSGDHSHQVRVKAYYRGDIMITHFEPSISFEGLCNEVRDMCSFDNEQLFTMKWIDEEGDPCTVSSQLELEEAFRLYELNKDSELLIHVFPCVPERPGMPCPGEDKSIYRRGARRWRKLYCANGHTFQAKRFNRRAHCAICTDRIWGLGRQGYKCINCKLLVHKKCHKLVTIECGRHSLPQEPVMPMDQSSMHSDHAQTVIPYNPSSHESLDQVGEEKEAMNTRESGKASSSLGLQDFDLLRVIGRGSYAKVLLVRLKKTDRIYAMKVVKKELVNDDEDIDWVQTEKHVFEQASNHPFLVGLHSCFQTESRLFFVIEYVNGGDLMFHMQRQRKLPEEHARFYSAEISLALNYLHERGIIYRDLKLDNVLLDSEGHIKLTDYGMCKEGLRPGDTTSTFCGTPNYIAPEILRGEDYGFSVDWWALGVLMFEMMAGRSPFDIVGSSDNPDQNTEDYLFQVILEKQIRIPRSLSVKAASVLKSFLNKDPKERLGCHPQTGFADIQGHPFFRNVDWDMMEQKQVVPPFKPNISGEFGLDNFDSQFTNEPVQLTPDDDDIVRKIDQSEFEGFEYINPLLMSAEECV
# Experiment: PKCι IC50 IMAP fluorescence polarisation assay, full-length enzyme
# Format: biochemical
# Details: full length PKCi at 15 μM ATP; read-out: IC50 in IMAP assay against full length PKCi
row,IC50 [nM],Compound
1,1000 to 10000,"CC(C)(C)NC(=O)c1csc2c(NC[C@@H](N)Cc3ccccc3)nc(-c3ccncc3)nc12 [compound 557, 4-((S)-2-Amino-3-phenyl-propylamino)-2-pyridin-4-yl-thieno[3,2-d]pyrimidine-7-carboxylic acid tert-butylamide]"
2,100 to 1000,"N[C@H](CNc1nc(-c2ccncc2)nc2c(-c3ccc[nH]3)csc12)Cc1ccccc1 [compound 397, (S)-3-Phenyl-N*1*-[2-pyridin-4-yl-7-(1H-pyrrol-2-yl)-thieno[3,2-d]pyrimidin-4-yl]-propane-1,2-diamine]"
3,1000 to 10000,"N[C@H](CNc1nc(-c2cc[n+]([O-])cc2)nc2c(Br)csc12)Cc1ccccc1 [compound 564, (S)—N*1*-[7-Bromo-2-(1-oxy-pyridin-4-yl)-thieno[3,2-d]pyrimidin-4-yl]-3-phenyl-propane-1,2-diamine]"
4,100 to 1000,"COC/C=C/c1csc2c(NC[C@@H](N)Cc3ccccc3)nc(-c3ccncc3)nc12 [compound 404, (S)-N*1*-[7-((E)-3-Methoxy-propenyl)-2-pyridin-4-yl-thieno[3,2-d]pyrimidin-4-yl]-3-phenyl-propane-1,2-diamine]"
5,100 to 1000,"COc1cccc(C(=O)Nc2cc(-c3nc(N[C@@H]4CCNC4)c4sccc4n3)ccn2)c1 [compound 596, 3-Methoxy-N-{4-[4-((R)-pyrrolidin-3-ylamino)-thieno[3,2-d]pyrimidin-2-yl]-pyridin-2-yl}-benzamide]"
6,100 to 1000,"CC[C@](C)(O)C#Cc1csc2c(NC[C@@H](N)Cc3ccccc3)nc(-c3ccncc3)nc12 [compound 523, (S)-1-[4-((S)-2-Amino-3-phenyl-propylamino)-2-pyridin-4-yl-thieno[3,2-d]pyrimidin-7-yl]-3-methyl-pent-1-yn-3-ol]"
7,10000 to 40000,"COc1ccc(C)cc1-c1c(C)sc2c(NC[C@@H](N)Cc3ccccc3)nc(-c3ccncc3)nc12 [compound 450, (S)-N*1*-[7-(2-Methoxy-5-methyl-phenyl)-6-methyl-2-pyridin-4-yl-thieno[3,2-d]pyrimidin-4-yl]-3-phenyl-propane-1,2-diamine]"
8,10000 to 40000,"COc1cccc(Cl)c1-c1c(C)sc2c(NC[C@@H](N)Cc3ccccc3)nc(-c3ccncc3)nc12 [compound 453, (S)-N*1*-[7-(2-Chloro-6-methoxy-phenyl)-6-methyl-2-pyridin-4-yl-thieno[3,2-d]pyrimidin-4-yl]-3-phenyl-propane-1,2-diamine]"
9,1000 to 10000,"c1cc(-c2nc(N[C@@H]3CCNC3)c3sccc3n2)cc(NCC2CC2)n1 [compound 597, {2-[2-(Cyclopropylmethyl-amino)-pyridin-4-yl]-thieno[3,2-d]pyrimidin-4-yl}-(R)-pyrrolidin-3-yl-amine]"
10,1000 to 10000,"NC(CNc1nc(-c2ccncc2F)nc2c(-c3ccsc3)csc12)Cc1ccccc1 (stereo in doubt) [compound 431, (R)-N*1*-[2-(3-Fluoro-pyridin-4-yl)-7-thiophen-3-yl-thieno[3,2-d]pyrimidin-4-yl]-3-phenyl-propane-1,2-diamine]"
11,100 to 1000,"N[C@H](CNc1nc(-c2ccncc2)nc2ccsc12)Cc1ccccc1 [compound 314, (S)-3-Phenyl-N*1*-(2-pyridin-4-yl-thieno[3,2-d]pyrimidin-4-yl)-propane-1,2-diamine]"
12,10000 to 40000,"CCC(C)(C)C(=O)Nc1csc2c(N[C@@H]3CCNC3)nc(-c3ccncc3)nc12 [compound 471, 2,2-Dimethyl-N-[2-pyridin-4-yl-4-((R)-pyrrolidin-3-ylamino)-thieno[3,2-d]pyrimidin-7-yl]-butyramide]"
13,100 to 1000,"Cc1sc2c(N[C@@H]3CCNC3)nc(-c3ccncc3)nc2c1Br [compound 328, (7-Bromo-6-methyl-2-pyridin-4-yl-thieno[3,2-d]pyrimidin-4-yl)-(R)-pyrrolidin-3-yl-amine]"
14,100 to 1000,"N[C@H](CNc1nc(-c2ccncc2)nc2c(-c3cc(C4CC4)[nH]n3)csc12)Cc1ccccc1 [compound 418, (S)-N*1*-[7-(5-Cyclopropyl-1H-pyrazol-3-yl)-2-pyridin-4-yl-thieno[3,2-d]pyrimidin-4-yl]-3-phenyl-propane-1,2-diamine]"
15,1000 to 10000,"Fc1cccc(Nc2csc3c(N[C@@H]4CCNC4)nc(-c4ccncc4F)nc23)c1 [compound 499, N*7*-(3-Fluoro-phenyl)-2-(3-fluoro-pyridin-4-yl)-N*4*-(R)-pyrrolidin-3-yl-thieno[3,2-d]pyrimidine-4,7-diamine]"
16,100 to 1000,"O=C(Nc1cc(-c2nc(N[C@@H]3CCNC3)c3sccc3n2)ccn1)c1ccc(N2CCOCC2)cc1 [compound 621, 4-Morpholin-4-yl-N-{4-[4-((R)-pyrrolidin-3-ylamino)-thieno[3,2-d]pyrimidin-2-yl]-pyridin-2-yl}-benzamide]"
17,< 100,"Cc1sc2c(NC[C@@H](N)Cc3ccccc3)nc(-c3ccncc3)nc2c1-c1ccn[nH]1 [compound 388, (S)—N*1*-[6-methyl-7-(2H-pyrazol-3-yl)-2-pyridin-4-yl-thieno[3,2-d]pyrimidin-4-yl]-3-phenyl-propane-1,2-diamine]"
18,100 to 1000,"c1cnc(Nc2cc(-c3nc(N[C@@H]4CCNC4)c4sccc4n3)ccn2)cn1 [compound 577, {2-[2-(Pyrazin-2-ylamino)-pyridin-4-yl]-thieno[3,2-d]pyrimidin-4-yl}-(R)-pyrrolidin-3-yl-amine]"
19,< 100,"CCc1cc(-c2csc3c(NC[C@@H](N)Cc4ccccc4)nc(-c4ccncc4)nc23)[nH]n1 [compound 571, (S)-N*1*-[7-(5-Ethyl-2H-pyrazol-3-yl)-2-pyridin-4-yl-thieno[3,2-d]pyrimidin-4-yl]-3-phenyl-propane-1,2-diamine]"
20,100 to 1000,"N[C@@H](CNc1nc(-c2ccncc2)nc2c(-c3ccn[nH]3)csc12)Cc1ccccc1 [compound 414, (R)-3-Phenyl-N*1*-[7-(1H-pyrazol-3-yl)-2-pyridin-4-yl-thieno[3,2-d]pyrimidin-4-yl]-propane-1,2-diamine]"
21,1000 to 10000,"c1ccc(Nc2cc(-c3nc(N[C@@H]4CCNC4)c4sccc4n3)ccn2)nc1 [compound 600, {2-[2-(Pyridin-2-ylamino)-pyridin-4-yl]-thieno[3,2-d]pyrimidin-4-yl}-(R)-pyrrolidin-3-yl-amine]"
22,1000 to 10000,"N#Cc1cccc(Nc2cc(-c3nc(N[C@@H]4CCNC4)c4sccc4n3)ccn2)c1 [compound 606, 3-{4-[4-((R)-Pyrrolidin-3-ylamino)-thieno[3,2-d]pyrimidin-2-yl]-pyridin-2-ylamino}-benzonitrile]"
23,1000 to 10000,"CN1CC[C@@H](Nc2nc(-c3ccnc(NC(=O)c4cccs4)c3)nc3ccsc23)C1 [compound 628, Thiophene-2-carboxylic acid {4-[4-((R)-1-methyl-pyrrolidin-3-ylamino)-thieno[3,2-d]pyrimidin-2-yl]-pyridin-2-yl}-amide]"
24,1000 to 10000,"CCC[C@@H](C)[C@H](O)C#Cc1csc2c(NC[C@@H](N)Cc3ccccc3)nc(-c3ccncc3)nc12 [compound 522, (S)-1-[4-((S)-2-Amino-3-phenyl-propylamino)-2-pyridin-4-yl-thieno[3,2-d]pyrimidin-7-yl]-4-methyl-hept-1-yn-3-ol]"
25,100 to 1000,"Fc1ccccc1Nc1csc2c(N[C@@H]3CCNC3)nc(-c3ccncc3F)nc12 [compound 500, N*7*-(2-Fluoro-phenyl)-2-(3-fluoro-pyridin-4-yl)-N*4*-(R)-pyrrolidin-3-yl-thieno[3,2-d]pyrimidine-4,7-diamine]"

# Same assay, conditions: full length PKCi at 15 μM ATP; read-out: IC50 in IMAP assay against full length PKCi (Activity)
row,IC50 [nM],Compound
1,10000 to 40000,"CN1CCc2c(sc3nc(-c4ccncc4)nc(NCCN)c23)C1 [compound 113, N*1*-(7-Methyl-2-pyridin-4-yl-5,6,7,8-tetrahydro-pyrido[4′,3′:4,5]thieno[2,3-d]pyrimidin-4-yl)-ethane-1,2-diamine]"
2,1000 to 10000,"N[C@@H](CNc1nc(-c2ccncc2)nc2sc3c(c12)CCCC3)Cc1cccc2ccccc12 [compound 52, (R)-3-Naphthalen-1-yl-N*1*- (2-pyridin-4-yl-5,6,7,8-tetrahydro-benzo[4,5]thieno[2,3-d]pyrimidin-4-yl)-propane-1,2-diamine]"
3,1000 to 10000,"CC(C)(C)C[C@H](N)CNc1nc(-c2ccncc2)nc2sc3c(c12)CCCC3 [compound 60, (S)-4,4-Dimethyl-N*1*-(2-pyridin-4-yl-5,6,7,8-tetrahydro-benzo[4,5]thieno[2,3-d]pyrimidin-4-yl)-pentane-1,2-diamine]"
4,10000 to 40000,"CCC(=O)N1CCc2c(sc3nc(-c4ccncc4)nc(NCCN)c23)C1 [compound 106, 1-[4-(2-Amino-ethylamino)-2-pyridin-4-yl-5,8-dihydro-6H-pyrido[4′,3′:4,5]thieno[2,3-d]pyrimidin-7-yl]-propan-1-one]"
5,1000 to 10000,"N[C@@H](CNc1nc(-c2ccncc2)nc2sc3c(c12)CCCCC3)Cc1ccccc1 [compound 70, (R)-3-Phenyl-N*1*-(2-pyridin-4-yl-6,7,8,9-tetrahydro-5H-10-thia-1,3-diaza-benzo[a]azulen-4-yl)-propane-1,2-diamine]"
6,100 to 1000,"N[C@H](CNc1nc(-c2ccncc2)nc2sc3c(c12)CCCC3)Cc1cccc(O)c1 [compound 66, 3-[(S)-2-Amino-3-(2-pyridin-4-yl-5,6,7,8-tetrahydro-benzo[4,5]thieno[2,3-d]pyrimidin-4-ylamino)-propyl]-phenol]"
